This is an account of results in PMC10205660 (Chemistry (Weinheim an der Bergstrasse, Germany), 2023).

Usually IC50 stands for the point on the concentration scale where inhibition reaches its midpoint.

Holding throughout (format): cell-based
One assay deals with A549 (lung cancer). The assay can be described thus: Antiproliferative activity, A549. To be noted: Homo sapiens.
A further assay concerns MCF7 (breast cancer). Briefly: Antiproliferative activity, MCF7.
Another assay relates to K562 (leukemia). Briefly: Antiproliferative activity, K562.
Assay [1] concerns MCF7, K562 and A549 cell lines. Briefly: Antiproliferative activity, statements in text without a single cell line. The following applies: at 4 μM.
[2] abbreviates: A549, read-out: IC50 values A549.
The mark [3] stands for this setting: Homo sapiens, MCF7, read-out: IC50 values MCF7.
[4] abbreviates: Homo sapiens, K562, read-out: IC50 values K562.
[5] abbreviates: Homo sapiens, MCF7, read-out: IC50 values MCF7, MCF7.
The mark [6] stands for this setting: Homo sapiens, K562, read-out: IC50 values K562, K562.

Molecules are shown by their SMILES. Like-named read-outs stand apart in the source and are kept apart here. Bounds are passed on as bounds.

Consider `CCC[C@H](O)[C@@H](C)C(=O)NC/C=C\C[C@@H](C)[C@@H](O)[C@H](C)[C@@H]1C/C=C\C[C@H](C)C(=O)Cc2cc(OC)cc(O)c2C(=O)O1` [Compound 2, (2R,3S)-3-hydroxy-N-((5R,6R,7S,Z)-6-hydroxy-7-((3S,8S,Z)-14-hydroxy-12-methoxy-8-methyl-1,9-dioxo-3,4,7,8,9,10-hexahydro-1H-benzo[c][1]oxacyclododecin-3-yl)-5-methyloct-2-en-1-yl)-2-methylhexanamide], for which the IC50 with A549 (lung cancer) (setting [2]) was 1.64 µM; in the assay on MCF7 (breast cancer) (setting [3]), 0.972 µM; in the assay with K562 (leukemia) (setting [4]), 1.28 µM.

For `CCC[C@H](O)[C@@H](C)C(=O)NC/C=C\C[C@@H](C)[C@@H](O)[C@H](C)[C@@H]1C/C=C\C[C@H](C)[C@H](OC(=O)CN)Cc2cc(OC)cc(O)c2C(=O)O1` [Compound 3, (3S,8S,9R,Z)-14-hydroxy-3-((2S,3R,4R,Z)-3-hydroxy-8-((2R,3S)-3-hydroxy-2-methylhexanamido)-4-methyloct-6-en-2-yl)-12-methoxy-8-methyl-1-oxo-3,4,7,8,9,10-hexahydro-1H-benzo[c][1]oxacyclododecin-9-yl glycinate], the IC50 in the assay with A549 (lung cancer) (setting [2]) was 1.74 µM; in the assay with MCF7 (breast cancer) (setting [3]), 0.0875 µM; in the assay on K562 (leukemia) (setting [4]), 0.0148 µM. Further, the “fold difference of IC50 versus cruentaren A” value in the assay on K562 (leukemia) (K562, versus cruentaren A) stood at 10 fold.

`CCC[C@H](O)[C@@H](C)C(=O)NC/C=C\C[C@@H](C)[C@@H](O)[C@H](C)[C@@H]1C/C=C\C[C@H](C)[C@H](OC(=O)[C@H](N)C(C)C)Cc2cc(OC)cc(O)c2C(=O)O1` [Compound 5, (3S,8S,9R,Z)-14-hydroxy-3-((2S,3R,4R,Z)-3-hydroxy-8-((2R,3S)-3-hydroxy-2-methylhexanamido)-4-methyloct-6-en-2-yl)-12-methoxy-8-methyl-1-oxo-3,4,7,8,9,10-hexahydro-1H-benzo[c][1]oxacyclododecin-9-yl D-valinate]: the IC50 turned out to be 1.33 µM in the assay on A549 (lung cancer) (setting [2]), 0.101 µM in the assay on MCF7 (breast cancer) (setting [5]) and 0.968 µM in the assay with K562 (leukemia) (setting [6]).

For `CCC[C@H](O)[C@@H](C)C(=O)NC/C=C\C[C@@H](C)[C@@H](O)[C@H](C)[C@@H]1C/C=C\C[C@H](C)[C@H](OC(=O)[C@H](N)Cc2ccccc2)Cc2cc(OC)cc(O)c2C(=O)O1` [Compound 6, (3S,8S,9R,Z)-14-hydroxy-3-((2S,3R,4R,Z)-3-hydroxy-8-((2R,3S)-3-hydroxy-2-methylhexanamido)-4-methyloct-6-en-2-yl)-12-methoxy-8-methyl-1-oxo-3,4,7,8,9,10-hexahydro-1H-benzo[c][1]oxacyclododecin-9-yl D-phenylalaninate], the IC50 in the assay with A549 (lung cancer) (setting [2]) was determined as 1.28 µM; with MCF7 (breast cancer) (setting [5]), 0.114 µM; in the assay with K562 (leukemia) (setting [6]), 1.12 µM.

With `CCC[C@H](OC(=O)[C@H](N)Cc1ccccc1)[C@@H](C)C(=O)NC/C=C\C[C@@H](C)[C@@H](O)[C@H](C)[C@@H]1C/C=C\C[C@H](C)[C@H](OC(=O)[C@H](N)Cc2ccccc2)Cc2cc(OC)cc(O)c2C(=O)O1` [Compound 7, (2R,3S)-1-(((5R,6R,7S,Z)-7-((3S,8S,9R,Z)-9-((D-phenylalanyl)oxy)-14-hydroxy-12-methoxy-8-methyl-1-oxo-3,4,7,8,9,10-hexahydro-1H-benzo[c][1]oxacyclododecin-3-yl)-6-hydroxy-5-methyloct-2-en-1-yl)amino)-2-methyl-1-oxohexan-3-yl D-phenylalaninate], the IC50 in the assay with A549 (lung cancer) (setting [2]) worked out at 2.46 µM; with MCF7 (breast cancer) (setting [5]), 0.051 µM; with MCF7 (breast cancer) (read-out: IC50 values MCF7, MCF7) it was 0.0513 µM; in the assay on K562 (leukemia) (setting [6]) it was 0.065 µM; in the assay on K562 (leukemia) (read-out: IC50 values K562, K562), 0.0646 µM.

As for `CCC[C@H](OC(C)=O)[C@@H](C)C(=O)NC/C=C\C[C@@H](C)[C@@H](O)[C@H](C)[C@@H]1C/C=C\C[C@H](C)[C@H](OC(C)=O)Cc2cc(OC)cc(O)c2C(=O)O1` [Compound 8, (2R,3S)-1-(((5R,6R,7S,Z)-7-((3S,8S,9R,Z)-9-acetoxy-14-hydroxy-12-methoxy-8-methyl-1-oxo-3,4,7,8,9,10-hexahydro-1H-benzo[c][1]oxacyclododecin-3-yl)-6-hydroxy-5-methyloct-2-en-1-yl)amino)-2-methyl-1-oxohexan-3-yl acetate], the figures for the IC50 in the assay on A549 (lung cancer) (setting [2]), in the assay with MCF7 (breast cancer) (setting [3]) and with K562 (leukemia) (setting [4]) were 3.36 µM, 0.574 µM and 1.28 µM, respectively.

`CCC[C@H](OC(C)=O)[C@@H](C)C(=O)NC/C=C\C[C@@H](C)[C@@H](OC(C)=O)[C@H](C)[C@@H]1C/C=C\C[C@H](C)[C@H](OC(C)=O)Cc2cc(OC)cc(O)c2C(=O)O1` [Compound 9, (2R,3R,4R,Z)-2-((3S,8S,9R,Z)-9-acetoxy-14-hydroxy-12-methoxy-8-methyl-1-oxo-3,4,7,8,9,10-hexahydro-1H-benzo[c][1]oxacyclododecin-3-yl)-8-((2R,3S)-3-acetoxy-2-methylhexanamido)-4-methyloct-6-en-3-yl acetate]: the IC50 in the assay with A549 (lung cancer) (setting [2]), in the assay on MCF7 (breast cancer) (setting [3]) and with K562 (leukemia) (setting [4]) was more than 4 µM each time. The “antiproliferative activity at highest concentration” value in assay [1] was “inactive”.

On to `CCC[C@H](O)[C@@H](C)C(=O)NC/C=C\C[C@@H](C)[C@@H](O)[C@H](C)[C@@H]1C/C=C\C[C@H](C)[C@H](OC(C)=O)Cc2cc(OC)cc(O)c2C(=O)O1` [Compound 10, (3S,8S,9R,Z)-14-hydroxy-3-((2S,3R,4R,Z)-3-hydroxy-8-((2R,3S)-3-hydroxy-2-methylhexanamido)-4-methyloct-6-en-2-yl)-12-methoxy-8-methyl-1-oxo-3,4,7,8,9,10-hexahydro-1H-benzo[c][1]oxacyclododecin-9-yl acetate], for which the half-inhibitory concentration (IC50) worked out at 1.96 µM with A549 (lung cancer) (A549, read-out: IC50 A549); 1.96 µM with A549 (lung cancer) (setting [2]); 0.17 µM in the assay on MCF7 (breast cancer) (Homo sapiens, MCF7, read-out: IC50 MCF7, MCF7); 0.174 µM in the assay on MCF7 (breast cancer) (setting [5]); 1.16 µM with K562 (leukemia) (Homo sapiens, K562, read-out: IC50 K562, K562); 1.16 µM in the assay with K562 (leukemia) (setting [6]).

Turning to `CCC[C@H](O)[C@@H](C)C(=O)NC/C=C\C[C@@H](C)[C@@H](OC(C)=O)[C@H](C)[C@@H]1C/C=C\C[C@H](C)[C@H](OC(C)=O)Cc2cc(OC)cc(O)c2C(=O)O1` [Compound 11, (2R,3R,4R,Z)-2-((3S,8S,9R,Z)-9-acetoxy-14-hydroxy-12-methoxy-8-methyl-1-oxo-3,4,7,8,9,10-hexahydro-1H-benzo[c][1]oxacyclododecin-3-yl)-8-((2R,3S)-3-hydroxy-2-methylhexanamido)-4-methyloct-6-en-3-yl acetate], the IC50 in the assay with A549 (lung cancer) (setting [2]), in the assay with MCF7 (breast cancer) (setting [3]) and with K562 (leukemia) (setting [4]) was more than 4 µM throughout. Besides, in assay [1], the “antiproliferative activity at highest concentration” value was “inactive”.

As for `CCC[C@H](O)[C@@H](C)C(=O)NCCCC[C@@H](C)[C@@H](O)[C@H](C)[C@@H]1CCCC[C@H](C)[C@H](O)Cc2cc(OC)cc(O)c2C(=O)O1` [Compound 12, (2R,3S)-N-((5R,6R,7S)-7-((3S,8S,9R)-9,14-dihydroxy-12-methoxy-8-methyl-1-oxo-3,4,5,6,7,8,9,10-octahydro-1H-benzo[c][1]oxacyclododecin-3-yl)-6-hydroxy-5-methyloctyl)-3-hydroxy-2-methylhexanamide], the 50% inhibitory concentration (IC50) with A549 (lung cancer) (setting [2]) is 4 µM; in the assay on MCF7 (breast cancer) (setting [5]) it was 0.179 µM; in the assay with K562 (leukemia) (setting [6]), 1.39 µM.
